Data from patent publication US20070010485A1 (priority 2005, published 2007).
Structures can show the parent of a compound that is named as a salt.

Columns and labels:
[1] = use of CAPTISOL
[2] = test system: P-gp expressing CD33(+) leukemia cells; conditions: cited from earlier work

increase in water solubility with CAPTISOL [1]	SMILES	reversal of resistance to Mylotarg [2]
> 5 fold	OC(COc1cccc2ncccc12)CN1CCN([C@@H]2c3ccccc3[C@@H]3[C@H](c4ccccc42)C3(F)F)CC1 (some centres unmarked) [zosuquidar trihydrochloride]	
	O=C(C(c1ccccc1)c1ccccc1)N1CCN(CC(O)COc2cccc3ncccc23)CC1.O=C(O)/C=C/C(=O)O (centres unmarked) [MS-209]	reverse the resistance to Mylotarg
